SMILES strings stand for the structures.

Broadly, the IC50 is the midpoint of a concentration-inhibition curve. A low value points to greater potency in that assay.

T1 sequence (A0A3Q1MT31 1-419): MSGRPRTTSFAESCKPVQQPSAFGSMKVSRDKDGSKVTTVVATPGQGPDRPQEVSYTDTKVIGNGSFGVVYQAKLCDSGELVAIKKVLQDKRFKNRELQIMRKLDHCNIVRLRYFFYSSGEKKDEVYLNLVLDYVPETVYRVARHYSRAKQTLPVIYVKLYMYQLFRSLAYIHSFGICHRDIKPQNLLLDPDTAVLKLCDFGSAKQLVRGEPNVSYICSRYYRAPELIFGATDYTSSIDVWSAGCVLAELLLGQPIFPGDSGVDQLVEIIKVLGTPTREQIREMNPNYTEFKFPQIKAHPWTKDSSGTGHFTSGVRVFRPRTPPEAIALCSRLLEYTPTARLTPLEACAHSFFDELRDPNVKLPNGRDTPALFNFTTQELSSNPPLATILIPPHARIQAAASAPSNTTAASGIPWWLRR

The experiment addresses T1, bovine cerebral TPK1 (Bos taurus, UniProt A0A3Q1MT31).
T1 construct: bovine cerebral TPK1; from tissue; host or cells: bovine brain (cerebrum)
The experiment is described as follows: Inhibitory activity against P-GS1 phosphorylation by bovine cerebral TPK1. The experiment is classed as biochemical. Conditions: 41.7 μM [γ-32P] ATP, 25° C., 2 hours, pH 6.5. The procedure:
Inhibitory Activity of the Medicament of the Present Invention Against P-GS1 Phosphorylation by Bovine Cerebral TPK1
A mixture containing 100 mM MES-sodium hydroxide (pH 6.5), 1 mM magnesium acetate, 0.5 mM EGTA, 5 mM β-mercaptoethanol, 0.02% Tween 20, 10% glycerol, 12 μg/ml P-GS1, 41.7 μM [γ-^32P] ATP (68 kBq/ml), bovine cerebral TPK1 and a compound shown in Table (a final mixture contained 1.7% DMSO deriving from a solution of a test compound prepared in the presence of 10% DMSO) was used as a reaction system. The phosphorylation was started by adding ATP, and the reaction was conducted at 25° C. for 2 hours, and then stopped by adding 21% perchloric-acid on ice cooling. The reaction mixture was centrifuged at 12,000 rpm for 5 minutes and adsorbed on P81 paper (Whatmann), and then the paper was washed four times with 75 mM phosphoric acid, three times with water and once with acetone. The paper was dried, and the residual radioactivity was measured using a liquid scintillation counter.
For `Cn1c(N2CCC=C(c3ccccc3)C2)nc(-c2ccncc2)cc1=O` [Compound A001, 2-(5-phenyl-3,6-dihydro-2H-pyridin-1-yl)-3-methyl-6-pyridin-4-yl-3H-pyrimidin-4-one], half-maximal inhibition (IC50) required 7 nM.

Take `Cn1c(N2CCC=C(c3ccccc3F)C2)nc(-c2ccncc2)cc1=O` [Compound A002, 2-[5-(2-fluorophenyl)-3,6-dihydro-2H-pyridin-1-yl]-3-methyl-6-pyridin-4-yl-3H-pyrimidin-4-one]: half-maximal inhibition (IC50) was put at 1.2 nM. To `Cn1c(N2CCC=C(c3ccc(F)cc3)C2)nc(-c2ccncc2)cc1=O` [Compound A004, 2-[5-(4-fluorophenyl)-3,6-dihydro-2H-pyridin-1-yl]-3-methyl-6-pyridin-4-yl-3H-pyrimidin-4-one] belongs 13 nM; to `Cn1c(N2CCC=C(c3ccc(F)cc3F)C2)nc(-c2ccncc2)cc1=O` [Compound A012, 2-[5-(2,4-difluorophenyl)-3,6-dihydro-2H-pyridin-1-yl]-3-methyl-6-pyridin-4-yl-3H-pyrimidin-4-one], 17 nM. Consider `COc1ccccc1C1=CCCN(c2nc(-c3ccncc3)cc(=O)n2C)C1` [Compound A020, 2-[5-(2-methoxyphenyl)-3,6-dihydro-2H-pyridin-1-yl]-3-methyl-6-pyridin-4-yl-3H-pyrimidin-4-one], for which 5 nM corresponded to half-maximal inhibition (IC50).

Compound `COc1ccc(C2=CCCN(c3nc(-c4ccncc4)cc(=O)n3C)C2)cc1` [Compound A022, 2-[5-(4-methoxyphenyl)-3,6-dihydro-2H-pyridin-1-yl]-3-methyl-6-pyridin-4-yl-3H-pyrimidin-4-one] showed an IC50 of 8.7 nM. Take `COc1cccc(OC)c1C1=CCCN(c2nc(-c3ccncc3)cc(=O)n2C)C1` [Compound A026, 2-[5-(2,6-dimethoxyphenyl)-3,6-dihydro-2H-pyridin-1-yl]-3-methyl-6-pyridin-4-yl-3H-pyrimidin-4-one]: the IC50 amounted to 16 nM. The same measure for `Cn1c(N2CCC=C(c3ccccc3C(F)(F)F)C2)nc(-c2ccncc2)cc1=O` [Compound A027, 2-[5-(2-trifluoromethylphenyl)-3,6-dihydro-2H-pyridin-1-yl]-3-methyl-6-pyridin-4-yl-3H-pyrimidin-4-one]: 31 nM. To `Cn1c(N2CCC=C(Cc3ccccc3)C2)nc(-c2ccncc2)cc1=O` [Compound A050, 2-(5-benzyl-3,6-dihydro-2H-pyridin-1-yl)-3-methyl-6-pyridin-4-yl-3H-pyrimidin-4-one] belongs 8 nM; to `Cn1c(N2CCC=C(COc3ccc(F)cc3)C2)nc(-c2ccncc2)cc1=O` [Compound A056, 2-[5-(4-fluorophenoxymethyl)-3,6-dihydro-2H-pyridin-1-yl]-3-methyl-6-pyridin-4-yl-3H-pyrimidin-4-one], 27 nM. Compound `Cn1c(N2CCC=C(c3ccc(C(=O)N4CCCC4)cc3)C2)nc(-c2ccncc2)cc1=O` [Compound A057, 2-[5-(4-pyrrolidinylcarbonylphenyl)-3,6-dihydro-2H-pyridin-1-yl]-3-methyl-6-pyridin-4-yl-3H-pyrimidin-4-one] came in with an IC50 of 24 nM. To `Cn1c(N2CCC=C(c3ccccc3)C2)nc(-c2ccncn2)cc1=O` [Compound B001, 2-(5-phenyl-3,6-dihydro-2H-pyridin-1-yl)-3-methyl-6-pyrimidin-4-yl-3H-pyrimidin-4-one] belongs 6.5 nM; to `Cn1c(N2CCC=C(c3ccccc3F)C2)nc(-c2ccncn2)cc1=O` [Compound B002, 2-[5-(2-fluorophenyl)-3,6-dihydro-2H-pyridin-1-yl]-3-methyl-6-pyrimidin-4-yl-3H-pyrimidin-4-one], 1.1 nM; to `Cn1c(N2CCC=C(c3ccc(F)cc3)C2)nc(-c2ccncn2)cc1=O` [Compound B004, 2-[5-(4-fluorophenyl)-3,6-dihydro-2H-pyridin-1-yl]-3-methyl-6-pyrimidin-4-yl-3H-pyrimidin-4-one], 6.3 nM. Turning to `Cn1c(N2CCC=C(c3ccccc3Cl)C2)nc(-c2ccncn2)cc1=O` [Compound B005, 2-[5-(2-chlorophenyl)-3,6-dihydro-2H-pyridin-1-yl]-3-methyl-6-pyrimidin-4-yl-3H-pyrimidin-4-one], the half-maximal inhibitory concentration (IC50) was determined as 0.38 nM. The same measure for `Cn1c(N2CCC=C(c3ccc(F)cc3F)C2)nc(-c2ccncn2)cc1=O` [Compound B012, 2-[5-(2,4-difluorophenyl)-3,6-dihydro-2H-pyridin-1-yl]-3-methyl-6-pyrimidin-4-yl-3H-pyrimidin-4-one]: 3.9 nM; for `Cn1c(N2CCC=C(c3ccc(Cl)cc3Cl)C2)nc(-c2ccncn2)cc1=O` [Compound B017, 2-[5-(2,4-dichlorophenyl)-3,6-dihydro-2H-pyridin-1-yl]-3-methyl-6-pyrimidin-4-yl-3H-pyrimidin-4-one]: 5.6 nM. The same measure for `COc1ccc(C2=CCCN(c3nc(-c4ccncn4)cc(=O)n3C)C2)cc1` [Compound B022, 2-[5-(4-methoxyphenyl)-3,6-dihydro-2H-pyridin-1-yl]-3-methyl-6-pyrimidin-4-yl-3H-pyrimidin-4-one]: 7.7 nM. Consider `COc1cccc(OC)c1C1=CCCN(c2nc(-c3ccncn3)cc(=O)n2C)C1` [Compound B026, 2-[5-(2,6-dimethoxyphenyl)-3,6-dihydro-2H-pyridin-1-yl]-3-methyl-6-pyrimidin-4-yl-3H-pyrimidin-4-one], for which it took 2.4 nM to reach half-maximal inhibition (IC50).

In turn, `Cn1c(N2CCC=C(c3ccccc3C(F)(F)F)C2)nc(-c2ccncn2)cc1=O` [Compound B027, 2-[5-(2-trifluoromethylphenyl)-3,6-dihydro-2H-pyridin-1-yl]-3-methyl-6-pyrimidin-4-yl-3H-pyrimidin-4-one] yielded a concentration for half-maximal inhibition (IC50) of 2.6 nM. For `Cn1c(N2CCC=C(c3ccccc3-c3ccccc3)C2)nc(-c2ccncn2)cc1=O` [Compound B033, 2-(5-biphenyl-2-yl-3,6-dihydro-2H-pyridin-1-yl)-3-methyl-6-pyrimidin-4-yl-3H-pyrimidin-4-one], the half-maximal inhibitory concentration (IC50) amounted to 17 nM. As for `Cn1c(N2CCC=C(c3ccsc3)C2)nc(-c2ccncn2)cc1=O` [Compound B043, 2-(5-thiophen-3-yl-3,6-dihydro-2H-pyridin-1-yl)-3-methyl-6-pyrimidin-4-yl-3H-pyrimidin-4-one], half-maximal inhibition (IC50) required 17 nM. For `Cn1c(N2CCC=C(c3cccs3)C2)nc(-c2ccncn2)cc1=O` [Compound B044, 2-(5-thiophen-2-yl-3,6-dihydro-2H-pyridin-1-yl)-3-methyl-6-pyrimidin-4-yl-3H-pyrimidin-4-one], half-maximal inhibition (IC50) required 9 nM. Turning to `Cn1c(N2CCC=C(c3noc4ccccc34)C2)nc(-c2ccncn2)cc1=O` [Compound B049, 2-[5-(benzisoxazole-3-yl)-3,6-dihydro-2H-pyridin-1-yl]-3-methyl-6-pyrimidin-4-yl-3H-pyrimidin-4-one], the IC50 stood at 5.1 nM. The same measure for `Cn1c(N2CCC=C(c3ccc(C(=O)N4CCCC4)cc3)C2)nc(-c2ccncn2)cc1=O` [Compound B057, 2-[5-(4-pyrrolidinylcarbonylphenyl)-3,6-dihydro-2H-pyridin-1-yl]-3-methyl-6-pyrimidin-4-yl-3H-pyrimidin-4-one]: 6.8 nM.
